# Measured values: ChEMBL document CHEMBL4627310, “Design, synthesis and biological evaluation of 3-nitro-1,8-naphthalimides as potential antitumor agents” (Bioorg Med Chem Lett, 2020)
# How the values were obtained:
# SK-OV-3 = test: Antiproliferative activity against human SKOV3 cells assessed as cell growth inhibition measured after 48 hrs by MTT assay; format: functional, cell-based; settings: SK-OV-3, 48 h
# HepG2 [1] = test: Antiproliferative activity against human HepG2 cells assessed as cell growth inhibition measured after 48 hrs by MTT assay; format: functional, cell-based; settings: HepG2, 48 h
# A549 = test: Antiproliferative activity against human A549 cells assessed as cell growth inhibition measured after 48 hrs by MTT assay; format: functional, cell-based; settings: A549, 48 h
# T-24 [2] = test: Antiproliferative activity against human T24 cells assessed as cell growth inhibition measured after 48 hrs by MTT assay; format: functional, cell-based; settings: T-24, 48 h
# SMMC-7721 = test: Antiproliferative activity against human SMMC7721 cells assessed as cell growth inhibition measured after 48 hrs by MTT assay; format: functional, cell-based; settings: SMMC-7721, 48 h
# L02 = test: Cytotoxicity against human HL7702 cells assessed as cell growth inhibition measured after 48 hrs by MTT assay; format: cell-based; settings: L02, 48 h
# HepG2 [3] = test: Anticancer activity against human HepG2 cells xenografted in mouse assessed as tumor growth inhibition by measuring T/C ratio at 5 mg/kg measured at day 14 relative to control; format: functional
# HepG2 [4] = test: Anticancer activity against human HepG2 cells xenografted in mouse assessed as tumor inhibition rate at 5 mg/kg measured at day 14 relative to control; format: functional; settings: HepG2, 336 h
# T-24 [5] = test: Anticancer activity against human T24 cells xenografted in mouse assessed as tumor growth inhibition by measuring T/C ratio at 5 mg/kg measured at day 14 relative to control; format: functional
# T-24 [6] = test: Anticancer activity against human T24 cells xenografted in mouse assessed as tumor inhibition rate at 5 mg/kg measured at day 14 relative to control; format: functional; settings: T-24, 336 h
structure (smiles),measurement,setting,value
CN(C)CCN1C(=O)c2cccc3cc([N+](=O)[O-])cc(c23)C1=O [MITONAFIDE],IC50,SK-OV-3,6.26 µM
same,IC50,HepG2 [1],10.9 µM
same,IC50,A549,7.94 µM
same,IC50,T-24 [2],5.01 µM
same,IC50,SMMC-7721,6.94 µM
same,IC50,L02,8.51 µM
same,T/C,HepG2 [3],28.8%
same,inhibition in vivo at 5 mg/kg,HepG2 [4],68.3%
same,T/C,T-24 [5],29%
same,inhibition in vivo at 5 mg/kg,T-24 [6],67%
